Data as given in ChEMBL document CHEMBL1240439, “Synthesis and docking studies of novel benzopyran-2-ones with anticancer activity” (2010).
Activity calls are given as the source filed them. The rule behind the calls is not given here.

Experiments:
Type in all cases: functional
SF-295 = assay: Cytotoxicity against human SF295 cells assessed as cell growth at 10 uM after 48 hrs by sulforhodamine B assay; settings: for growth at 10 µM: SF-295, 48 h, read-out: Activity
SK-MEL-2 = assay: Cytotoxicity against human SK-MEL-2 cells assessed as cell growth at 10 uM after 48 hrs by sulforhodamine B assay
UACC-62 = assay: Cytotoxicity against human UACC62 cells assessed as cell growth at 10 uM after 48 hrs by sulforhodamine B assay; settings: for growth at 10 µM: UACC-62, 48 h, read-out: Activity
MOLT-4 = assay: Cytotoxicity against human MOLT4 cells assessed as cell growth at 10 uM after 48 hrs by sulforhodamine B assay; settings: for growth at 10 µM: MOLT-4, 48 h, read-out: Activity
RPMI-8226 = assay: Cytotoxicity against human RPMI8226 cells assessed as cell growth at 10 uM after 48 hrs by sulforhodamine B assay; settings: for growth at 10 µM: RPMI-8226, 48 h, read-out: Activity
K562 = assay: Cytotoxicity against human K562 cells assessed as cell growth at 10 uM after 48 hrs by sulforhodamine B assay; settings: for growth at 10 µM: K562, 48 h, read-out: Activity
OVCAR-4 = assay: Cytotoxicity against human OVCAR4 cells assessed as cell growth at 10 uM after 48 hrs by sulforhodamine B assay
SR = assay: Cytotoxicity against human SR cells assessed as cell growth at 10 uM after 48 hrs by sulforhodamine B assay
T47D = assay: Cytotoxicity against human T47D cells assessed as cell growth at 10 uM after 48 hrs by sulforhodamine B assay
EKVX = assay: Cytotoxicity against human EKVX cells assessed as cell growth at 10 uM after 48 hrs by sulforhodamine B assay
HL-60(TB) = assay: Cytotoxicity against human HL-60(TB) cells assessed as cell growth at 10 uM after 48 hrs by sulforhodamine B assay
NCI-H23 = assay: Cytotoxicity against human NCI-H23 cells assessed as cell growth at 10 uM after 48 hrs by sulforhodamine B assay
U-251 = assay: Cytotoxicity against human U251 cells assessed as cell growth at 10 uM after 48 hrs by sulforhodamine B assay
HOP-92 = assay: Cytotoxicity against human HOP92 cells assessed as cell growth at 10 uM after 48 hrs by sulforhodamine B assay
CCRF-CEM = assay: Cytotoxicity against human CCRF-CEM cells assessed as cell growth at 10 uM after 48 hrs by sulforhodamine B assay
SK-MEL-5 = assay: Cytotoxicity against human SK-MEL-5 cells assessed as cell growth at 10 uM after 48 hrs by sulforhodamine B assay
IGROV-1 = assay: Cytotoxicity against human IGROV1 cells assessed as cell growth at 10 uM after 48 hrs by sulforhodamine B assay
UACC-257 = assay: Cytotoxicity against human UACC257 cells assessed as cell growth at 10 uM after 48 hrs by sulforhodamine B assay
Malme-3M = assay: Cytotoxicity against human MALME-3M cells assessed as cell growth at 10 uM after 48 hrs by sulforhodamine B assay
OVCAR-8 = assay: Cytotoxicity against human OVCAR8 cells assessed as cell growth at 10 uM after 48 hrs by sulforhodamine B assay
786-0 = assay: Cytotoxicity against human 786-0 cells assessed as cell growth at 10 uM after 48 hrs by sulforhodamine B assay
OVCAR-3 = assay: Cytotoxicity against human OVCAR-3 cells assessed as cell growth at 10 uM after 48 hrs by sulforhodamine B assay
HCC 2998 = assay: Cytotoxicity against human HCC2998 cells assessed as cell growth at 10 uM after 48 hrs by sulforhodamine B assay
HT-29 = assay: Cytotoxicity against human HT-29 cells assessed as cell growth at 10 uM after 48 hrs by sulforhodamine B assay
SK-OV-3 = assay: Cytotoxicity against human SKOV3 cells assessed as cell growth at 10 uM after 48 hrs by sulforhodamine B assay
HOP-62 = assay: Cytotoxicity against human HOP62 cells assessed as cell growth at 10 uM after 48 hrs by sulforhodamine B assay
RXF 393 = assay: Cytotoxicity against human RXF393 cells assessed as cell growth at 10 uM after 48 hrs by sulforhodamine B assay
SN12C = assay: Cytotoxicity against human SN12C cells assessed as cell growth at 10 uM after 48 hrs by sulforhodamine B assay
SF-539 = assay: Cytotoxicity against human SF539 cells assessed as cell growth at 10 uM after 48 hrs by sulforhodamine B assay
UO-31 = assay: Cytotoxicity against human UO31 cells assessed as cell growth at 10 uM after 48 hrs by sulforhodamine B assay
NCI-H226 = assay: Cytotoxicity against human NCI-H226 cells assessed as cell growth at 10 uM after 48 hrs by sulforhodamine B assay
ACHN = assay: Cytotoxicity against human ACHN cells assessed as cell growth at 10 uM after 48 hrs by sulforhodamine B assay
COLO 205 = assay: Cytotoxicity against human COLO205 cells assessed as cell growth at 10 uM after 48 hrs by sulforhodamine B assay
M14 = assay: Cytotoxicity against human M14 cells assessed as cell growth at 10 uM after 48 hrs by sulforhodamine B assay
OVCAR-5 = assay: Cytotoxicity against human OVCAR5 cells assessed as cell growth at 10 uM after 48 hrs by sulforhodamine B assay
BT-549 = assay: Cytotoxicity against human BT549 cells assessed as cell growth at 10 uM after 48 hrs by sulforhodamine B assay
SNB-75 = assay: Cytotoxicity against human SNB75 cells assessed as cell growth at 10 uM after 48 hrs by sulforhodamine B assay
Hs-578T = assay: Cytotoxicity against human Hs 578T cells assessed as cell growth at 10 uM after 48 hrs by sulforhodamine B assay
DU-145 = assay: Cytotoxicity against human DU145 cells assessed as cell growth at 10 uM after 48 hrs by sulforhodamine B assay
TK-10 = assay: Cytotoxicity against human TK10 cells assessed as cell growth at 10 uM after 48 hrs by sulforhodamine B assay
A549 = assay: Cytotoxicity against human A549 cells assessed as cell growth at 10 uM after 48 hrs by sulforhodamine B assay
PC-3 = assay: Cytotoxicity against human PC3 cells assessed as cell growth at 10 uM after 48 hrs by sulforhodamine B assay
NCI-H322M = assay: Cytotoxicity against human NCI-H322M cells assessed as cell growth at 10 uM after 48 hrs by sulforhodamine B assay
NCI-H522 = assay: Cytotoxicity against human NCI-H522 cells assessed as cell growth at 10 uM after 48 hrs by sulforhodamine B assay
MDA-MB-231 = assay: Cytotoxicity against human MDA-MB-231 cells assessed as cell growth at 10 uM after 48 hrs by sulforhodamine B assay
SF-268 = assay: Cytotoxicity against human SF268 cells assessed as cell growth at 10 uM after 48 hrs by sulforhodamine B assay
HCT-116 = assay: Cytotoxicity against human HCT116 cells assessed as cell growth at 10 uM after 48 hrs by sulforhodamine B assay
MDA-MB-468 = assay: Cytotoxicity against human MDA-MB-468 cells assessed as cell growth at 10 uM after 48 hrs by sulforhodamine B assay
MCF7 = assay: Cytotoxicity against human MCF7 cells assessed as cell growth at 10 uM after 48 hrs by sulforhodamine B assay
MDA-MB-435 = assay: Cytotoxicity against human MDA-MB-435 cells assessed as cell growth at 10 uM after 48 hrs by sulforhodamine B assay
A498 = assay: Cytotoxicity against human A498 cells assessed as cell growth at 10 uM after 48 hrs by sulforhodamine B assay
SNB-19 = assay: Cytotoxicity against human SNB19 cells assessed as cell growth at 10 uM after 48 hrs by sulforhodamine B assay
LOX IMVI = assay: Cytotoxicity against human LOXIMVI cells assessed as cell growth at 10 uM after 48 hrs by sulforhodamine B assay
NCI-H460 = assay: Cytotoxicity against human NCI-H460 cells assessed as cell growth at 10 uM after 48 hrs by sulforhodamine B assay
SW-620 = assay: Cytotoxicity against human SW620 cells assessed as cell growth at 10 uM after 48 hrs by sulforhodamine B assay
HCT-15 = assay: Cytotoxicity against human HCT15 cells assessed as cell growth at 10 uM after 48 hrs by sulforhodamine B assay
KM12 = assay: Cytotoxicity against human KM12 cells assessed as cell growth at 10 uM after 48 hrs by sulforhodamine B assay
SK-MEL-28 = assay: Cytotoxicity against human SK-MEL-28 cells assessed as cell growth at 10 uM after 48 hrs by sulforhodamine B assay

## CCCc1cc(=O)oc2c(C)c(OCc3nnc(SC)o3)ccc12
SF-295
  growth at 10 µM: 21.9%

## CCCc1cc(=O)oc2cc(OCc3nnc(S)n3Cc3ccccc3)ccc12
SK-MEL-2; SK-MEL-2, 48 h, read-out: Activity
  growth at 10 µM: 53.4%
UACC-62
  growth at 10 µM: 59.7%
MOLT-4
  growth at 10 µM: 58.7%
RPMI-8226
  growth at 10 µM: 37.3%
K562
  growth at 10 µM: 46.9%
OVCAR-4; OVCAR-4, 48 h, read-out: Activity
  growth at 10 µM: 48.7%
SR; read-out: Activity
  growth at 10 µM: 57.6%
SF-295
  growth at 10 µM: 53%
T47D; read-out: Activity
  growth at 10 µM: 50.7%
EKVX; read-out: Activity
  growth at 10 µM: 57.7%
HL-60(TB); HL-60, 48 h, read-out: Activity
  growth at 10 µM: 59.7%

## CCCc1cc(=O)oc2cc(OCc3nnc(S)o3)ccc12
NCI-H23
  Activity: inactive
U-251
  Activity: inactive
HOP-92
  Activity: inactive
SK-MEL-2
  Activity: inactive
CCRF-CEM
  Activity: inactive
SK-MEL-5
  Activity: inactive
UACC-62
  Activity: inactive
IGROV-1
  Activity: inactive
UACC-257
  Activity: inactive
Malme-3M
  Activity: inactive
OVCAR-8
  Activity: inactive
786-0
  Activity: inactive
OVCAR-3
  Activity: inactive
MOLT-4
  Activity: inactive
HCC 2998
  Activity: inactive
HT-29
  Activity: inactive
RPMI-8226
  Activity: inactive
SK-OV-3
  Activity: inactive
HOP-62
  Activity: inactive
RXF 393
  Activity: inactive
K562
  Activity: inactive
SN12C
  Activity: inactive
SF-539
  Activity: inactive
UO-31
  Activity: inactive
OVCAR-4
  Activity: inactive
NCI-H226
  Activity: inactive
ACHN
  Activity: inactive
COLO 205
  Activity: inactive
SR
  Activity: inactive
M14
  Activity: inactive
SF-295
  Activity: inactive
OVCAR-5
  Activity: inactive
BT-549
  Activity: inactive
SNB-75
  Activity: inactive
Hs-578T
  Activity: inactive
DU-145
  Activity: inactive
TK-10
  Activity: inactive
A549
  Activity: inactive
PC-3
  Activity: inactive
NCI-H322M
  Activity: inactive
NCI-H522
  Activity: inactive
MDA-MB-231
  Activity: inactive
SF-268
  Activity: inactive
HCT-116
  Activity: inactive
MDA-MB-468
  Activity: inactive
MCF7
  Activity: inactive
MDA-MB-435
  Activity: inactive
A498
  Activity: inactive
SNB-19
  Activity: inactive
LOX IMVI
  Activity: inactive
NCI-H460
  Activity: inactive
T47D
  Activity: inactive
EKVX
  Activity: inactive
SW-620
  Activity: inactive
HCT-15
  Activity: inactive
KM12
  Activity: inactive
HL-60(TB)
  Activity: inactive
SK-MEL-28
  Activity: inactive

## Cc1c(OCc2nnc(S)n2Cc2ccccc2)ccc2c(-c3ccccc3)cc(=O)oc12
UACC-62
  growth at 10 µM: 59.9%
MOLT-4
  growth at 10 µM: 49%
HT-29; HT-29, 48 h, read-out: Activity
  growth at 10 µM: 57.1%
RPMI-8226
  growth at 10 µM: 31.5%
K562
  growth at 10 µM: 53.6%
SF-295
  growth at 10 µM: 45.8%
PC-3; PC-3, 48 h, read-out: Activity
  growth at 10 µM: 56.6%
NCI-H522; NCI-H522, 48 h, read-out: Activity
  growth at 10 µM: 56.6%

## Cc1c(OCc2nnc(S)o2)ccc2c(-c3ccccc3)cc(=O)oc12
NCI-H23
  Activity: inactive
U-251
  Activity: inactive
HOP-92
  Activity: inactive
SK-MEL-2
  Activity: inactive
CCRF-CEM
  Activity: inactive
SK-MEL-5
  Activity: inactive
UACC-62
  Activity: inactive
IGROV-1
  Activity: inactive
UACC-257
  Activity: inactive
Malme-3M
  Activity: inactive
OVCAR-8
  Activity: inactive
786-0
  Activity: inactive
OVCAR-3
  Activity: inactive
MOLT-4
  Activity: inactive
HCC 2998
  Activity: inactive
HT-29
  Activity: inactive
RPMI-8226
  Activity: inactive
SK-OV-3
  Activity: inactive
HOP-62
  Activity: inactive
RXF 393
  Activity: inactive
K562
  Activity: inactive
SN12C
  Activity: inactive
SF-539
  Activity: inactive
UO-31
  Activity: inactive
OVCAR-4
  Activity: inactive
NCI-H226
  Activity: inactive
ACHN
  Activity: inactive
COLO 205
  Activity: inactive
SR
  Activity: inactive
M14
  Activity: inactive
SF-295
  Activity: inactive
OVCAR-5
  Activity: inactive
BT-549
  Activity: inactive
SNB-75
  Activity: inactive
Hs-578T
  Activity: inactive
DU-145
  Activity: inactive
TK-10
  Activity: inactive
A549
  Activity: inactive
PC-3
  Activity: inactive
NCI-H322M
  Activity: inactive
NCI-H522
  Activity: inactive
MDA-MB-231
  Activity: inactive
SF-268
  Activity: inactive
HCT-116
  Activity: inactive
MDA-MB-468
  Activity: inactive
MCF7
  Activity: inactive
MDA-MB-435
  Activity: inactive
A498
  Activity: inactive
SNB-19
  Activity: inactive
LOX IMVI
  Activity: inactive
NCI-H460
  Activity: inactive
T47D
  Activity: inactive
EKVX
  Activity: inactive
SW-620
  Activity: inactive
HCT-15
  Activity: inactive
KM12
  Activity: inactive
HL-60(TB)
  Activity: inactive
SK-MEL-28
  Activity: inactive

## Cc1c(OCc2nnc(-c3ccccc3)o2)ccc2c(-c3ccccc3)cc(=O)oc12
RPMI-8226
  growth at 10 µM: 47.5%
